Data from US20260274910A1, “SINGLE FUSION PROTEIN AND PHARMACEUTICAL COMPOSITION” (MEDI&GENE INC., priority 2023, published 2026).

Experiments:
[1] = test system: Akt and S6 (phosphorylation, p-Akt/p-S6) in C2C12 mouse skeletal muscle cell line; assay: Akt and S6 phosphorylation (western blot) in C2C12 muscle cells; format: cell-based; conditions: 2 hours
Description: In order to evaluate functions related to muscle loss diseases, each test substance was treated to the undifferentiated C2C12 mouse skeletal muscle cell line (mouse myoblast cell line) or the cell line in which differentiation into myotubes was completed. Differentiation of the cell line into myotubes was performed by conducting addition of 2% horse serum to culture medium and replacement with new medium every two days for a total of 4 days.
To the undifferentiated or differentiated cell lines, the test substances, fusion proteins (SEQ ID NOs: 1, 2, 3, 7, 14 and 15) were treated at a concentration of 100 nM (Control: PBS treated group) for 2 hours. Thereafter, the cells were immediately washed once and the cells were lysed with RIPA buffer (Radioimmunoprecipitation assay buffer). The activity of Akt and S6 (phosphorylation, p-Akt/p-S6) was observed by western blot. Akt phosphorylation is a well-known marker of activation of cell signaling pathways, and is an indicator of beneficial effects on muscle cells such as promotion of glucose metabolism and promotion of muscle biosynthesis. Similarly, S6 phosphorylation is a well-known marker of mTOR activity, and the activity of mTOR is an indicator showing muscle biosynthesis and various cell signaling pathways.

[2] = test system: MDA-MB-231 triple-negative breast cancer cell line; assay: MTT cell viability in breast cancer cells; format: cell-based; conditions: 1 μM, 48 hours; compared with Control (PBS), SEQ ID NO: 4 and SEQ ID NO: 5
Description: Next, the test substances, the fusion proteins (SEQ ID NO: 1, 2, 3, 7, 14, 15) and shortened sequences (SEQ ID NOs: 9, 10, 11, 12) were treated to MDA-MB-231 triple-negative breast cancer cell line at a concentration of 1 μM (Control: PBS) for 48 hours. Thereafter, the cells were washed with PBS once, and the cells were suspended in serum-free buffer. The MTT (3-[4,5-dimethylthiazol-2-yl]-2,5-diphenyltetrazolium bromide) substance was added thereto at 0.5 mg/ml and incubated at 37° C. for 2 hours. Then, they were washed with PBS once, and the cells were lysed with DMSO for 15 minutes. The solution was transferred to a new plate and the absorbance was measured at 590 nm using a microplate reader.

[3] = test system: MDA-MB-231 cell line; assay: Reactive oxygen generation (DCF-FA) in breast cancer cells; format: cell-based; conditions: 1 μM, 24 hours; compared with Control and SEQ ID NO: 5
Description: In addition, in order to examine generation of reactive oxygen that plays an important role in cancer cell death, each test substance was treated to the MDA-MB-231 cell line at a concentration of 1 μM (Control: PBS) for 24 hours. Then, the cells were stained with DCF-FA and their fluorescence values were observed and compared at 485/535 nm.

[4] = test system: cAMP (cyclic AMP); assay: cAMP level (hTRF) in undifferentiated 3T3-L1 cells; format: cell-based, mouse; conditions: undifferentiated 3T3-L1, 100 nM with 0.5 mM IBMX, 30 minutes; compared with Control and SEQ ID NO: 5
Description: To observe the functionality of the fusion proteins related to lipid metabolism, the 3T3-L1 mouse pre-adipocyte cell line was used as the cell line itself (undifferentiated) or by differentiating into adipocytes. Differentiation into the adipocytes was performed by inducing primary differentiation for the 3T3-L1 cells in a medium containing DMEM, 10% FBS, 10 μg/ml insulin, 0.5 mM IBMX (3-Isobutyl-1-methylxanthine), and 1 μM dexamethasone for 2 days, and inducing secondary differentiation with a medium containing DMEM, 10% FBS, and 10 μg/ml insulin for the remaining 4 days. The adipocytes in which differentiation was finally completed were treated with the test substances at a concentration of 100 nM for 30 hours (Control: PBS) and then used for each test.
Next, changes in cAMP (cyclic AMP), a signaling mediator contributing to lipolysis and energy metabolism were evaluated in the undifferentiated adipocytes. The undifferentiated cells were treated with the test substances at a concentration of 100 nM (Control: PBS) with 0.5 mM IBMX for 30 minutes. Thereafter, the level of cAMP was evaluated by the hTRF (Homogeneous Time Resolved Fluorescence) method (using CAMP Gs dynamic kit from Cisbio). As a result of the measurement, it was confirmed that the level of cAMP was higher in the groups treated with the fusion proteins (SEQ ID NOs: 1, 2, 3, 7, 13, 14, 15) and shortened sequences (sequences 9, 10, 11) compared with the Control and His tag-wild-type substance (1-81) (SEQ ID NO: 5) (FIG. 7).

[5] = test system: follicular cells (dermal papilla cells); assay: Follicular cell proliferation by MTT assay; format: cell-based; conditions: 100 nM, 24 hours; compared with Control (PBS)
Description: Whether the test substances of the present invention has effects on preventing hair loss or promoting hair growth was evaluated as follows. Specifically, it was observed whether they have efficacy of improving loss of follicular cells in scalp tissue which is a cause of hair loss, or hair growth due to an increase in hair follicles, by using dermal papilla cells and evaluating cell proliferation of follicular cells.
The follicular cells were treated with each test substance 100 nM (control: PBS) for 24 hours, and the degree of cell proliferation was evaluated by MTT assay.

[6] = test system: sciatic nerve transection mouse model; assay: Sciatic nerve transection muscle atrophy model; format: in vivo, C57BL/6 male mice; conditions: versus control
Description: The effects of the test substances on muscle diseases accompanied by muscle loss were evaluated using a sciatic nerve transection mouse model.
In the sciatic nerve transection mouse model, muscle atrophy was induced as follows. The thigh muscles of C57BL/6 male mice were transversely incised to expose sciatic nerves, and then the sciatic nerves were transected to weaken the nerves in the muscle tissue and induce muscle atrophy. The incised site was sutured, and a recovery period of one week was provided after the surgery.
To each mouse after the recovery period, the test substance (Control-PBS; and fusion protein) assigned to each group was subcutaneously injected at a concentration of 5.0 mg/kg 6 times a week for 9 weeks (Control: n=8, No. 13: n=9, No. 14: n=9, No. 15: n=8). The effects of improving muscle loss were measured with an X-ray body composition analyzer (DXA assay) in the fourth week of test substance administration, and the effects of improving muscle function was compared by measuring grip strength.

[7] = test system: diet-induced obesity-induced impaired glucose tolerance mice; assay: Diet-induced obesity-induced impaired glucose tolerance model (glucose tolerance test); format: in vivo, C57BL/6N mice; conditions: 5.0 mg/kg 1 hour before intraperitoneal 20% glucose, after 8 hours fasting
Description: In order to secure an impaired glucose tolerance model, conditions causing glucose metabolic disorders in mice by diet-induced obesity were designed. As an animal model, 5-week-old male C57BL/6N mice were obtained and after undergoing an acclimation period by providing a normal diet for 1 week, they were used, and the housing conditions were maintained at 18~24° C., 50~60% humidity, and ad libitum feeding with free access to feed and water was carried out during both the acclimation period and experimental period.
In order to induce impaired glucose tolerance to the mice which had undergone the acclimation period of 1 week, a high-fat diet was supplied to induce obesity. The high-fat diet was provided by preparing as Table 10 below.
The obesity-induced mice were divided into a control group (negative control group; n=14) and an experimental group (fusion protein SEQ ID NOs: 14, 15; No. 14: n=9, No. 15: n=9) and subjected to fasting for 8 hours. Thereafter, PBS to the control, and the fusion protein to the experimental group were administered at a concentration of 5.0 mg/kg, and after 1 hours, a 20% glucose solution was intraperitoneally injected. Blood was collected at each time point and analyzed using a glucometer.

[8] = Table 6, C2C12, 100 nM, differentiation state not given

## SEQ ID NO: 15: Recombinant protein: Shortened substance (1-47)-Shortened linker-Fc fusion
[1]; [8]
  Activity (% increase compared to control) Akt: 548%
  Activity (% increase compared to control) S6: 232%
[1]; differentiated cell line, 100 nM
  Activity of Akt and S6 compared with control and His tag-wild-type substance (SEQ ID NO: 5): significantly higher activity
[2]
  Cell viability (MTT): significantly low
[3]
  Reactive oxygen generation: generated higher
[4]
  Level of cAMP: higher
[5]
  Cell viability (MTT, cell proliferation): significantly increased
[6]; 5.0 mg/kg subcutaneous 6 times a week for 9 weeks
  Grip strength: higher performance
[6]; 5.0 mg/kg subcutaneous 6 times a week, fourth week
  Muscle mass (DXA assay): significantly increased
[7]
  Blood glucose variation over time (GLUAUC) compared with the control group: significant difference
